{"source": "patent US10612094B2", "about": "“Genetic markers for engraftment of human cardiac ventricular progenitor cells” (Procella Therapeutics AB, priority 2016, dated 2020)", "system": "human ventricular muscle organ strips", "assay": "Force generation of muscle strips from HVP-derived human muscle organ in response to electric stimulation", "details": "muscle strips of 5-month graft, p<0.05 compared to control", "from_the_text": "One of the critical limitations for the utility of hPSCs for studies of human cardiac biology and disease is their lack of maturity and persistence of expression of fetal isoforms. […] Animals were sacrificed and the engrafted kidneys were removed for further analysis. The 5-month human graft was a hemisphere structure with the radius of 0.4 cm (diameter of 0.8 cm). […] In addition, muscle trips taken from our mature human muscle organ generated forces (0.36±0.04 mN) in response to electric stimulation and increased their force generation after treatment with a β-adrenergic agonist isoprenaline (0.51±0.02 mN, p<0.05 compared to control). Taken together, these studies indicate that the HVPs are capable of generating a fully functional, mature human ventricular muscle organ in vivo via a cell autonomous pathway, i.e., without the addition of other cells, genes, matrix proteins, or biomaterials."}
{"smiles": "CC(C)NCC(O)c1ccc(O)c(O)c1", "note": "(stereo not shown) [isoprenaline]", "values": [{"measurement": "force generation after treatment with β-adrenergic agonist", "value": "0.51±0.02", "unit": "mN"}]}
